Measured values from US20260256792A1, “TREATMENT OF CHRONIC SPONTANEOUS URTICARIA BY ADMINISTERING (R)-2-[3-[4-AMINO-3-(2-FLUORO-4-PHENOXY-PHENYL)PYRAZOLO[3,4-D]PYRIMIDIN-1-YL]PIPERIDINE-1-CARBONYL]-4-METHYL-4-[4-(OXETAN-3-YL)PIPERAZIN-1-YL]PENT-2-ENENITRILE” (priority 2023, published 2026).

Test system: moderate-to-severe chronic spontaneous urticaria (CSU)
Experiment: Phase 2 CSU study: urticaria control test (UCT)
Assay type: in vivo, human
Set-up: key to UCT, Mean / UCT, Median / UCT change from baseline, Mean / UCT change from baseline, Median: UCT total = sum of 4 item scores; low = low disease control
Excerpt: The study comprises a 12 week, randomized, double-blind, placebo-controlled, multi-center, dose-ranging efficacy and safety phase, followed by a 40 week open label extension (OLE) phase (see FIG. 1). The study consists of three phases and an optional OLE phase. […] To this end, the UCT was proposed as a tertiary endpoint in this study. […] The dermatology life quality index (DLQI) was proposed as a tertiary endpoint in this study. […] Low scores indicate high disease activity and low disease control. The UCT total score is calculated by adding all 4 individual item scores. […] The recall period is the previous 4 weeks. Patients were to complete the UCT questionnaire during their site visit.

[1] = 400 mg QPM, Week 8, ITT population
[2] = 400 mg QPM, Week 8, omalizumab-naïve population
[3] = 400 mg QPM, Week 8, prior omalizumab use incl. incomplete responders
[4] = 400 mg QPM, Week 12, ITT population
[5] = 400 mg QPM, Week 12, omalizumab-naïve population
[6] = 400 mg QPM, Week 12, prior omalizumab use incl. incomplete responders
[7] = 400 mg TID, End of study, omalizumab-naïve population
[8] = 400 mg TID, End of study, prior omalizumab use incl. incomplete responders
[9] = 400 mg TID, Week 4, ITT population
[10] = 400 mg TID, Week 4, omalizumab-naïve population
[11] = 400 mg TID, Week 4, prior omalizumab use incl. incomplete responders
[12] = 400 mg TID, Week 8, ITT population
[13] = 400 mg TID, Week 8, omalizumab-naïve population
[14] = 400 mg TID, Week 8, prior omalizumab use incl. incomplete responders
[15] = 400 mg TID, Week 12, ITT population
[16] = 400 mg TID, Week 12, omalizumab-naïve population
[17] = 400 mg TID, Week 12, prior omalizumab use incl. incomplete responders

CC(C)(C=C(C#N)C(=O)N1CCC[C@@H](n2nc(-c3ccc(Oc4ccccc4)cc3F)c3c(N)ncnc32)C1)N1CCN(C2COC2)CC1 [rilzabrutinib, (R)-2-[3-[4-amino-3-(2-fluoro-4-phenoxy-phenyl)pyrazolo[3,4-d]pyrimidin-1-yl]piperidine-1-carbonyl]-4-methyl-4-[4-(oxetan-3-yl)piperazin-1-yl]pent-2-enenitrile]
UCT % Change difference for rilzabrutinib vs. placebo LS Mean (95% CI) [1]: −37.84 (−167.44, 91.76) %
UCT % Change from baseline LS Mean (SE) [1]: 126.71 (44.63) %
UCT Change difference for rilzabrutinib vs. placebo LS Mean (95% CI) [1]: −1.21 (−3.16, 0.74)
UCT Change from baseline LS Mean (SE) [1]: 3.16 (0.71)
UCT Post-baseline Mean (SD) [1]: 6.97 (3.84)
UCT % Change difference for rilzabrutinib vs. placebo LS Mean (95% CI) [2]: −48.49 (−177.78, 80.81) %
UCT % Change from baseline LS Mean (SE) [2]: 121.09 (44.66) %
UCT Change difference for rilzabrutinib vs. placebo LS Mean (95% CI) [2]: −1.49 (−3.43, 0.45)
UCT Change from baseline LS Mean (SE) [2]: 2.98 (0.71)
UCT Post-baseline Mean (SD) [2]: 6.84 (3.84)
UCT change from baseline, Mean [2]: 3.09
UCT change from baseline, Median [2]: 2.00
UCT percent change from baseline, Mean [2]: 138.85%
UCT, Median [2]: 7.00
UCT change from baseline, Mean [3]: 6.00
UCT change from baseline, Median [3]: 6.00
UCT percent change from baseline, Mean [3]: 120.00%
UCT percent change from baseline, Median [3]: 120.00%
UCT % Change difference for rilzabrutinib vs. placebo LS Mean (95% CI) [4]: −100.02 (−238.68, 38.64) %
UCT % Change from baseline LS Mean (SE) [4]: 99.76 (47.53) %
UCT Change difference for rilzabrutinib vs. placebo LS Mean (95% CI) [4]: −1.82 (−3.87, 0.23)
UCT Change from baseline LS Mean (SE) [4]: 2.92 (0.76)
UCT Post-baseline Mean (SD) [4]: 6.97 (3.84)
UCT % Change difference for rilzabrutinib vs. placebo LS Mean (95% CI) [5]: −105.95 (−247.17, 35.27) %
UCT Change difference for rilzabrutinib vs. placebo LS Mean (95% CI) [5]: −1.96 (−3.99, 0.08)
UCT Change from baseline LS Mean (SE) [5]: 2.77 (0.75)
UCT Post-baseline Mean (SD) [5]: 6.88 (3.86)
UCT change from baseline, Mean [5]: 3.13
UCT change from baseline, Median [5]: 2.00
UCT percent change from baseline, Mean [5]: 121.74%
UCT percent change from baseline, Median [5]: 92.86%
UCT, Median [5]: 7.00
UCT change from baseline, Mean [6]: 5.00
UCT change from baseline, Median [6]: 5.00
UCT percent change from baseline, Mean [6]: 100.00%
UCT percent change from baseline, Median [6]: 100.00%
UCT over baseline (400 mg TID): mild increase
UCT change from baseline, Mean [7]: 4.00
UCT change from baseline, Median [7]: 4.00
UCT percent change from baseline, Mean [7]: 41.03%
UCT percent change from baseline, Median [7]: 41.03%
UCT change from baseline, Mean [8]: 11.60
UCT change from baseline, Median [8]: 13.00
UCT percent change from baseline, Mean [8]: 7.80%
UCT percent change from baseline, Median [8]: 9.00%
UCT, Mean [8]: 4.83
UCT, Median [8]: 4.00
UCT % Change difference for rilzabrutinib vs. placebo LS Mean (95% CI) [9]: 122.56 (−10.01, 255.13) %
UCT % Change from baseline LS Mean (SE) [9]: 262.11 (48.72) %
UCT Change difference for rilzabrutinib vs. placebo LS Mean (95% CI) [9]: 2.34 (0.46, 4.22)
UCT Change from baseline LS Mean (SE) [9]: 5.68 (0.68)
UCT Post-baseline Mean (SD) [9]: 10.03 (4.20)
UCT % Change difference for rilzabrutinib vs. placebo LS Mean (95% CI) [10]: 124.43 (−9.74, 258.61) %
UCT % Change from baseline LS Mean (SE) [10]: 267.24 (49.68) %
UCT Change difference for rilzabrutinib vs. placebo LS Mean (95% CI) [10]: 2.23 (0.33, 4.13)
UCT Change from baseline LS Mean (SE) [10]: 5.47 (0.70)
UCT Post-baseline Mean (SD) [10]: 9.77 (4.17)
UCT change from baseline, Mean [10]: 5.63
UCT change from baseline, Median [10]: 6.50
UCT percent change from baseline, Mean [10]: 254.30%
UCT percent change from baseline, Median [10]: 100.00%
UCT change from baseline, Mean [11]: 7.80
UCT change from baseline, Median [11]: 9.00
UCT percent change from baseline, Mean [11]: 146.88%
UCT percent change from baseline, Median [11]: 143.75%
UCT, Median [11]: 13.00
UCT % Change difference for rilzabrutinib vs. placebo LS Mean (95% CI) [12]: 108.30 (−18.30, 234.90) %
UCT % Change from baseline LS Mean (SE) [12]: 272.85 (43.60) %
UCT Change difference for rilzabrutinib vs. placebo LS Mean (95% CI) [12]: 1.43 (−0.50, 3.37)
UCT Change from baseline LS Mean (SE) [12]: 5.80 (0.69)
UCT Post-baseline Mean (SD) [12]: 10.00 (3.85)
UCT % Change difference for rilzabrutinib vs. placebo LS Mean (95% CI) [13]: 102.55 (−31.38, 236.49) %
UCT % Change from baseline LS Mean (SE) [13]: 272.13 (49.40) %
UCT Change difference for rilzabrutinib vs. placebo LS Mean (95% CI) [13]: 1.19 (−0.75, 3.12)
UCT Change from baseline LS Mean (SE) [13]: 5.66 (0.71)
UCT Post-baseline Mean (SD) [13]: 9.80 (3.86)
UCT change from baseline, Median [13]: 6.50
UCT percent change from baseline, Mean [13]: 277.48%
UCT percent change from baseline, Median [13]: 120.83%
UCT, Median [13]: 9.50
UCT change from baseline, Median [14]: 5.00
UCT percent change from baseline, Mean [14]: 107.33%
UCT percent change from baseline, Median [14]: 25.00%
UCT % Change difference for rilzabrutinib vs. placebo LS Mean (95% CI) [15]: 122.43 (−16.89, 261.74) %
UCT % Change from baseline LS Mean (SE) [15]: 322.21 (47.00) %
UCT Change difference for rilzabrutinib vs. placebo LS Mean (95% CI) [15]: 1.80 (−0.20, 3.79)
UCT Change from baseline LS Mean (SE) [15]: 6.53 (0.70)
UCT Post-baseline Mean (SD) [15]: 10.69 (4.25)
UCT % Change difference for rilzabrutinib vs. placebo LS Mean (95% CI) [16]: 131.76 (−18.16, 281.68) %
UCT % Change from baseline LS Mean (SE) [16]: 329.00 (51.79) %
UCT Change difference for rilzabrutinib vs. placebo LS Mean (95% CI) [16]: 1.58 (−0.47, 3.63)
UCT Change from baseline LS Mean (SE) [16]: 6.31 (0.76)
UCT change from baseline, Median [16]: 6.00
UCT percent change from baseline, Mean [16]: 311.71%
UCT percent change from baseline, Median [16]: 102.86%
UCT change from baseline, Mean [17]: 8.00
UCT change from baseline, Median [17]: 9.00
UCT percent change from baseline, Mean [17]: 156.25%
UCT percent change from baseline, Median [17]: 162.50%
patients achieving a UCT≥12 (400 mg TID, over time up to Week 12): > 20%
